Data set [1] is described as follows: Retention time of the compound by RP-HPLC analysis. Type of data set: physicochemical.
Data set [2] concerns the target T1, Oxytocin receptor (Homo sapiens, UniProt P30559).
T1 sequence (P30559 whole entry): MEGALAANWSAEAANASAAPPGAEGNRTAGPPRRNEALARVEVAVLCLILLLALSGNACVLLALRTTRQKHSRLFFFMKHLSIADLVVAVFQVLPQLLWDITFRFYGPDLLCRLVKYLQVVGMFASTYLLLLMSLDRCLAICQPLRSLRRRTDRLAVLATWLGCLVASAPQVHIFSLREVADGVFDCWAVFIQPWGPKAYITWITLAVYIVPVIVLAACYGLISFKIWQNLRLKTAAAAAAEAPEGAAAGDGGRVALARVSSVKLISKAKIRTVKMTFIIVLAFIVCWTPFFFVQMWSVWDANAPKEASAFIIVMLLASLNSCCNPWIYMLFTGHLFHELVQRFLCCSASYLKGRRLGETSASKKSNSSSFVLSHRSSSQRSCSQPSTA
The data set is described as follows: Binding affinity to OTR (unknown origin).

The target of data set [3] is T1, Oxytocin receptor. The data set is described as follows: Competitive binding to SNAP-tagged oxytocin receptor (unknown origin) expressed in HEK293 cells incubated for 1 hr at RT followed by 4 hrs at 4 degC by TR-FRET assay in presence of 5-(3-(22-(3-carboxy-4-(3-oxo-3H-xanthen-9-yl)phenyl)-15,22-dioxo-2,5,8,11-tetraoxa-14,21-diazadocosyl)-5-(3-(2-chloro-4-fluorophenoxy)azetidin-1-yl)-4H-1,2,4-triazol-4-yl)-2-methoxypyridinium 2,2,2-trifluoroacetate. It is filed as cell-based. In general terms: Time-resolved FRET reads energy transfer from a long-lived donor to a nearby acceptor.

In data set [4] the target is T2, Vasopressin V1a receptor (Homo sapiens, UniProt P37288). Briefly: Binding affinity to V1aR (unknown origin).
T2 sequence (P37288 whole entry): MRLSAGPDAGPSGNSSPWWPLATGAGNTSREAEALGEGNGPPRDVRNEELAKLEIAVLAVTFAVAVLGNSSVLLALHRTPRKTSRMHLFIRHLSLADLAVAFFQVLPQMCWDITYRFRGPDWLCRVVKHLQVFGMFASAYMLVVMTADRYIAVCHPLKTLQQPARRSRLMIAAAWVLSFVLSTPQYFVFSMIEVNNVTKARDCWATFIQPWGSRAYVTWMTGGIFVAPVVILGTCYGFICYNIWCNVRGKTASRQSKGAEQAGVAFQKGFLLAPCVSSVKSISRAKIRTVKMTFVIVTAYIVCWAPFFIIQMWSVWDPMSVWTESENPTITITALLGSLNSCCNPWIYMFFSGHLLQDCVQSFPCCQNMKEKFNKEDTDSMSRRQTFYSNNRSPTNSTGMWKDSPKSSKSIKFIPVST
In data set [5] the target is T3, Vasopressin V2 receptor (Homo sapiens, UniProt P30518). Briefly: Binding affinity to V2R (unknown origin).
T3 sequence (P30518 whole entry): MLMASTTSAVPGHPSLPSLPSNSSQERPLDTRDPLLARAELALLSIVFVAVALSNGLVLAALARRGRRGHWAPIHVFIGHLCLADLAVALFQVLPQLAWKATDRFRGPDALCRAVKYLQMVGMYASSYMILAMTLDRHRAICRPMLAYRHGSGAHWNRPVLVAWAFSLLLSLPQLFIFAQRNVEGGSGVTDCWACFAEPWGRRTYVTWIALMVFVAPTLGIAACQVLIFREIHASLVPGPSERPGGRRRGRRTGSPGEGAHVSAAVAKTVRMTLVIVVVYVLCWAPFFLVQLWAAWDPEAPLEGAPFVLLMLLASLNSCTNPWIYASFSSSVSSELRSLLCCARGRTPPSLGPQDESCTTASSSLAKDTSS
The target in data set [6] is T1, Oxytocin receptor. Briefly: Competitive binding to SNAP-tagged oxytocin receptor (unknown origin) expressed in HEK293 cells incubated for 1 hr at RT followed by 4 hrs at 4 degC by TR-FRET assay in presence of 2-(5-(3-(1-(5-(3-(2-chloro-4-fluorophenoxy)azetidin-1-yl)-4-(6-methoxypyridinium-3-yl)-4H-1,2,4-triazol-3-yl)-15-oxo-2,5,8,11-tetraoxa-14-azaoctadecan-18-yl)-1-ethyl-3-methyl-5-sulfoindolin-2-ylidene)penta-1,3-dienyl)-1 …. It is filed as cell-based.

Data set [7] deals with T1, Oxytocin receptor. Briefly: Binding affinity to SNAP-tagged oxytocin receptor (unknown origin) expressed in HEK293 cells assessed as dissociation constant after 5 to 120 mins by TR-FRET assay. Type of data set: cell-based.
The target of a further data set is T4, Vasopressin V1b receptor (Homo sapiens, UniProt P47901).
T4 sequence (P47901 whole entry): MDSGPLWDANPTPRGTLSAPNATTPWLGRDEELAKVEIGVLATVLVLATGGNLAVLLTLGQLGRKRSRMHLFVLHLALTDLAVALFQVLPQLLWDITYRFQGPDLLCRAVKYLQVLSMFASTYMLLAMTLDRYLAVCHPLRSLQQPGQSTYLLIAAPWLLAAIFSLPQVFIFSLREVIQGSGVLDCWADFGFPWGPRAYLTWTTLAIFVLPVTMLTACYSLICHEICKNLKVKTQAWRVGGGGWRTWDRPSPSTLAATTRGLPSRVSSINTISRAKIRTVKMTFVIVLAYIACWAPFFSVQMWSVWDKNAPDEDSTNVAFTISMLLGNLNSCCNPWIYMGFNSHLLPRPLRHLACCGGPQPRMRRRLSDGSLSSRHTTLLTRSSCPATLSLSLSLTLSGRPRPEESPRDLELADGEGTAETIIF
The data set is described as follows: Binding affinity to V1bR (unknown origin) expressed in HEK293 cells by TR-FRET assay. Type of data set: cell-based.

The target of data set [8] is T3, Vasopressin V2 receptor. The data set is described as follows: Binding affinity to V2R (unknown origin) expressed in HEK293 cells by TR-FRET assay. It is filed as cell-based.
Data set [9] has as its target T1, Oxytocin receptor. The data set is described as follows: Binding affinity to SNAP-tagged oxytocin receptor (unknown origin) expressed in HEK293 cells by TR-FRET assay. It is filed as cell-based.
The target of data set [10] is T2, Vasopressin V1a receptor. The data set is described as follows: Binding affinity to V1aR (unknown origin) expressed in HEK293 cells by TR-FRET assay. It is filed as cell-based.
The target in data set [11] is T1, Oxytocin receptor. Briefly: Binding affinity to SNAP-tagged oxytocin receptor (unknown origin) expressed in HEK293 cells assessed as association constant after 5 to 120 mins by TR-FRET assay. It is filed as cell-based.
The species entered for another data set is Homo sapiens. Briefly: Selectivity ratio of Kd for V1aR (unknown origin) to Kd for SNAP-tagged oxytocin receptor (unknown origin).

For orientation: Ki means a dissociation constant, usually derived from enzyme kinetics or from competition with a known ligand. Broadly, the Kd is the equilibrium constant for the complex coming apart.

With `CCN1\C(=C/C=C/C=C/C2=[N+](CC)c3cc(S(=O)(=O)[O-])ccc3C2(C)C)C(C)(CCCC(=O)ON2C(=O)CCC2=O)c2cc(S(=O)(=O)O)ccc21` (stereo not drawn), the Retention_time in [1] amounted to 3.17 min.

As to `Cc1ccn(Cc2ccc(C(=O)N3Cc4cnn(C)c4Nc4ccccc43)cc2C)n1`, the inhibition constant Ki at Oxytocin receptor [2] worked out at 27.8 nM; at Oxytocin receptor [3] it was 6.22 nM; at Vasopressin V1a receptor [4] it was 18 nM; on Vasopressin V2 receptor [5], 913 nM; on Oxytocin receptor [6] it was 6.6 nM.

In turn, `O=C(CCCCCNC(=O)c1ccc2c(c1)C(=O)OC21c2ccc(O)cc2Oc2cc(O)ccc21)ON1C(=O)CCC1=O` had a Retention_time in data set [1] of 4 min.

The molecule `COc1ccc(-n2c(COCCOCCOCCOCCNC(=O)CCCCCNC(=O)c3ccc(-c4c5ccc(=O)cc-5oc5cc(O)ccc45)c(C(=O)O)c3)nnc2N2CC(Oc3ccc(F)cc3Cl)C2)cn1.O=C(O)C(F)(F)F` showed a Retention_time in data set [1] of 4.38 min. Besides, at Oxytocin receptor [7], the koff is reported as 18.9 ×10⁻³ /min. Further, the Kd was more than 1000 nM at Vasopressin V1b receptor, more than 1000 nM on Vasopressin V2 receptor [8], 1.59 nM on Oxytocin receptor [9] and more than 1000 nM on Vasopressin V1a receptor [10]. For the same molecule, the kon on Oxytocin receptor [11] turned out to be 3.57 ×10⁶ /M/min.

On to `COc1ccc(-n2c(COCCOCCOCCOCCOCCOCCOCCOCCNC(=O)CCCCCNC(=O)c3ccc(-c4c5ccc(=O)cc-5oc5cc(O)ccc45)c(C(=O)O)c3)nnc2N2CC(Oc3ccc(F)cc3Cl)C2)cn1.O=C(O)C(F)(F)F`, for which the Retention_time in data set [1] was 4.39 min. The equilibrium dissociation constant (Kd) was more than 1000 nM at Vasopressin V1b receptor, more than 1000 nM on Vasopressin V2 receptor [8], 2.05 nM on Oxytocin receptor [9] and more than 1000 nM at Vasopressin V1a receptor [10].

Take `CCN1\C(=C/C=C/C=C/C2=[N+](CC)c3cc(S(=O)(=O)[O-])ccc3C2(C)C)C(C)(CCCC(=O)NCCNC(=O)CCc2ccc(S(=O)(=O)N(CC(=O)N/N=C3\C(=O)Nc4ccccc43)c3ccc(Cl)cc3)cc2)c2cc(S(=O)(=O)O)ccc21` (stereo not drawn): in [1], the Retention_time was determined as 3.96 min. The Kd on Vasopressin V1b receptor is more than 1000 nM; at Vasopressin V2 receptor [8] it was 30.5 nM; at Oxytocin receptor [9], 1.37 nM; on Vasopressin V1a receptor [10], 19.7 nM. Moreover, the Ratio in the data set filed under Homo sapiens worked out at 14.

`O=C(CCCCCNC(=O)c1ccc(-c2c3ccc(=O)cc-3oc3cc(O)ccc23)c(C(=O)O)c1)NCCNC(=O)CCc1ccc(S(=O)(=O)N(CC(=O)N/N=C2\C(=O)Nc3ccccc32)c2ccc(Cl)cc2)cc1`: in data set [1], the Retention_time came to 4.68 min. In addition, the dissociation constant Kd on Vasopressin V1b receptor was more than 1000 nM; at Vasopressin V2 receptor [8], 135 nM; at Oxytocin receptor [9], 1.73 nM; at Vasopressin V1a receptor [10] it was 61 nM. The Ratio in the data set filed under Homo sapiens came out at 35.

With `CCN1\C(=C/C=C/C=C/C2=[N+](CC)c3cc(S(=O)(=O)[O-])ccc3C2(C)C)C(C)(CCCC(=O)NCCOCCOCCOCCOCc2nnc(N3CC(Oc4ccc(F)cc4Cl)C3)n2-c2ccc(OC)nc2)c2cc(S(=O)(=O)O)ccc21.O=C(O)C(F)(F)F` (stereo not drawn), the Retention_time in [1] came to 3.94 min. For the same molecule, at Oxytocin receptor [7], the koff came out at 10.9 ×10⁻³ /min. Besides, the Kd at Vasopressin V1b receptor was more than 1000 nM; on Vasopressin V2 receptor [8] it was 509 nM; at Oxytocin receptor [9] it was 1.59 nM; at Vasopressin V1a receptor [10], more than 1000 nM. In addition, on Oxytocin receptor [11], the kon is given as 4.03 ×10⁶ /M/min.

Molecule `CCN1\C(=C/C=C/C=C/C2=[N+](CC)c3cc(S(=O)(=O)[O-])ccc3C2(C)C)C(C)(CCCC(=O)NCCOCCOCCOCCOCCOCCOCCOCCOCc2nnc(N3CC(Oc4ccc(F)cc4Cl)C3)n2-c2ccc(OC)nc2)c2cc(S(=O)(=O)O)ccc21.O=C(O)C(F)(F)F` (stereo not drawn) yielded a Retention_time in [1] of 3.97 min. For the same molecule, the Kd is more than 1000 nM at Vasopressin V1b receptor, 353 nM at Vasopressin V2 receptor [8], 1.86 nM at Oxytocin receptor [9] and more than 1000 nM at Vasopressin V1a receptor [10].

The record behind these values is ChEMBL document CHEMBL3414550 (J Med Chem, 2015).
